# Assay results taken from ChEMBL document CHEMBL5053535, “Design, synthesis and biological evaluation of novel aminopyrazole- and 7-azaindole-based Nek1 inhibitors and their effects on zebrafish kidney development” (Bioorg Med Chem Lett, 2021).
# Legend:
# [1] = target: T1, Serine/threonine-protein kinase Nek1 (Homo sapiens, UniProt Q96PY6); experiment: Inhibition of human NEK1 using myelin basic protein as substrate assessed as residual activity in presence of [gamma-33P]-ATP by radiometric hotspot kinase assay relative to control
# T1 sequence (Q96PY6 whole entry): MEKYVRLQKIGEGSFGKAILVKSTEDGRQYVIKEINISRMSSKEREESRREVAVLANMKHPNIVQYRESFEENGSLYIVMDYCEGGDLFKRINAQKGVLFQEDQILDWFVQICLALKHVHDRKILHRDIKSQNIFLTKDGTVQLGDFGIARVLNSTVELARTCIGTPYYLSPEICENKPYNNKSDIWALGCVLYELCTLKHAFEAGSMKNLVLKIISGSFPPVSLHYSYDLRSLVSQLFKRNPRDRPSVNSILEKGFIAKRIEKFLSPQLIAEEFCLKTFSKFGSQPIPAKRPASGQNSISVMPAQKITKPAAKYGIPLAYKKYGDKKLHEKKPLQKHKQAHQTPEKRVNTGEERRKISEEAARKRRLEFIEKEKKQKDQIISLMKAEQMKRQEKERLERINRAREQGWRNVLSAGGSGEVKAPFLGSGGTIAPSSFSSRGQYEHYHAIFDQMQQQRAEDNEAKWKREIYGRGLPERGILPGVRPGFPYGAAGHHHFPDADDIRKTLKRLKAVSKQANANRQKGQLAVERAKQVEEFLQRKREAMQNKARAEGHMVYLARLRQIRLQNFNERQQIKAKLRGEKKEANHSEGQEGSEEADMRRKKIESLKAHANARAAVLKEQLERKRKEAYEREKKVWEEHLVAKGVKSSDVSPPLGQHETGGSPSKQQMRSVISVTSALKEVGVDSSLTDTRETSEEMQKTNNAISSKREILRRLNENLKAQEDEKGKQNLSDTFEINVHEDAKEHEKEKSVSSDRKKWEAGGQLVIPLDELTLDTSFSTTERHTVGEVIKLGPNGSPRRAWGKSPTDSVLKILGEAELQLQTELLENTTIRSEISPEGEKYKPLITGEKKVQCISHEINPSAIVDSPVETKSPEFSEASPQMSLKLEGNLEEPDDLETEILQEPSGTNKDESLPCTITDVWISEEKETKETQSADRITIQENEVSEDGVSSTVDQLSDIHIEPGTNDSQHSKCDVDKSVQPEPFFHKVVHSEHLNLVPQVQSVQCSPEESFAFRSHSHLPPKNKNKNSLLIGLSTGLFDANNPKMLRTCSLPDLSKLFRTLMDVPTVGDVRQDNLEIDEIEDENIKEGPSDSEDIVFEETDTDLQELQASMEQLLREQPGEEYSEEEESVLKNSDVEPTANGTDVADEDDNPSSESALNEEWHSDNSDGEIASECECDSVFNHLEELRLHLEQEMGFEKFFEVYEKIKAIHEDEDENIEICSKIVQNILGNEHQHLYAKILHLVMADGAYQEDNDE
# [2] = Permeability across basolateral to apical side in human Caco-2 cells at pH 7.4 assessed as compound recovery at 1 uM; assay type: ADME, cell-based; conditions: Caco-2, pH 7.4, read-out: Drug recovery
# [3] = target: T2, Serine/threonine-protein kinase Nek1 (Homo sapiens) (UniProt Q96PY6); experiment: Inhibition of human NEK1 using myelin basic protein as substrate assessed as residual activity at 1 uM in presence of [gamma-33P]-ATP by radiometric hotspot kinase assay relative to control
# T2 sequence (whole entry): T1 sequence (Q96PY6 whole entry)
# Danio rerio = organism: Danio rerio; experiment: Toxicity in wild type zebra fish model of polycystic kidney disease assessed as increase in fluorescence intensity at 0.5 uM incubated for 48 hrs in presence of N-phenyl thiourea further treated with PT-yellow for 20 mins followed by dye washout and incubated in solution containing compound for 96 hrs by fluorescence imaging analysis; assay type: organism-based; conditions: zebrafish, in vivo
# [4] = target: Cyclin-dependent kinase 2/cyclin E1 (Homo sapiens) (UniProt P24864+P24941); experiment: Inhibition of human recombinant full length C-terminal His6 tagged CDK2/ N-terminal GST-tagged Cyclin E expressed in baculovirus infected Sf21 insect cells using histone H1 as substrate assessed as residual activity at 1 uM pretreated for 20 mins followed by [33P]-ATP addition measured after 120 mins by radiometric hotspot kinase assay relative to control; conditions: time 140.0 min
# [5] = Solubility of the compound in DMEM with 1% DMSO by DAD-HPLC based shake flask method; assay type: physicochemical
# [6] = Toxicity in zebra fish embryos assessed as lethality at 1.5 uM measured after 96 hrs relative to control; assay type: organism-based, Danio rerio; conditions: zebrafish, in vivo, read-out: Activity
structure (smiles),measurement,setting,value
COC(=O)c1cccc(-c2cnc3[nH]cc(-c4cccnc4)c3c2)c1,IC50,[1],11.5 nM
same,recovery at 1 µM,[2],29.6%
same,Activity,[3],-0.6%
same,Activity,Danio rerio,Toxic
same,Activity,[4],1.6%
same,solubility,[5],4.3 µM
same,"mortality at 96 h, 1.5 µM",[6],100%
